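Interpolation was linear, between the two tested concentrations surrounding the appropriate level; five concentrations were tested over 48 hours in 96-well plates. The concentration for 50% growth inhibition is given as GI50.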 Calls of active or inactive are those of the source. No stated cut-off is given here; in the data, active = GI50 up to about 1.1 µM and inactive = higher.
Legend:
Assay in all cases: growth of human tumour cells (NCI), 48 h
HCC 2998 = test system: HCC 2998
HOP-62 = test system: HOP-62
MOLT-4 = test system: MOLT-4
Hs-578T = test system: Hs-578T
HCT-15 = test system: HCT-15
SK-MEL-5 = test system: SK-MEL-5
T47D = test system: T47D
SW-620 = test system: SW-620
KM-20L2 = test system: KM-20L2
SNB-75 = test system: SNB-75
SF-295 = test system: SF-295
HCT-116 = test system: HCT-116
SK-MEL-28 = test system: SK-MEL-28
U-251 = test system: U-251
XF498 = test system: XF498
HT-29 = test system: HT-29
SNB-19 = test system: SNB-19
MDA-MB-231 = test system: MDA-MB-231
CCRF-CEM = test system: CCRF-CEM
Malme-3M = test system: Malme-3M
K562 = test system: K562
IGROV-1 = test system: IGROV-1
OVCAR-3 = test system: OVCAR-3
OVCAR-4 = test system: OVCAR-4
KM12 = test system: KM12
M19-MEL = test system: M19-MEL
RPMI-8226 = test system: RPMI-8226
UO-31 = test system: UO-31
SF-539 = test system: SF-539
M14 = test system: M14
EKVX = test system: EKVX
DLD-1 = test system: DLD-1
PC-3 = test system: PC-3
SK-MEL-2 = test system: SK-MEL-2
786-0 = test system: 786-0
NCI-H522 = test system: NCI-H522
A498 = test system: A498
UACC-257 = test system: UACC-257
MDA-N = test system: MDA-N
MCF7 = test system: MCF7
UACC-62 = test system: UACC-62
OVCAR-5 = test system: OVCAR-5
OVCAR-8 = test system: OVCAR-8
SK-OV-3 = test system: SK-OV-3
SR = test system: SR
NCI-H226 = test system: NCI-H226
SN12C = test system: SN12C
LXFL 529 = test system: LXFL 529
HOP-92 = test system: HOP-92
LOX IMVI = test system: LOX IMVI
HOP-18 = test system: HOP-18
MDA-MB-435 = test system: MDA-MB-435
NCI-H460 = test system: NCI-H460
A549 = test system: A549
COLO 205 = test system: COLO 205
DU-145 = test system: DU-145
SF-268 = test system: SF-268
RXF 393 = test system: RXF 393
RXF 631 = test system: RXF 631
DMS-273 = test system: DMS-273
HL-60 = test system: HL-60
ACHN = test system: ACHN
NCI-H23 = test system: NCI-H23
TK-10 = test system: TK-10
BT-549 = test system: BT-549
CAKI-1 = test system: CAKI-1
SNB-78 = test system: SNB-78

Q: `C[C@]12CCNC(=O)C=C1CC[C@@H]1C2CC[C@@]2(C)C1CC[C@@H]2OC(=O)COc1ccc(N(CCCl)CCCl)cc1` (some centres not stated) was tested. Which GI50 (HCC 2998) did it give?
A: Its GI50 is 3.84 µM (inactive).

Q: What about the GI50 (HOP-62) of the same compound?
A: The GI50 was 2.84 µM (inactive).

Q: What about the GI50 (MOLT-4) of the same compound?
A: Its GI50 is 0.145 µM (active).

Q: And the GI50 (Hs-578T)?
A: Its GI50 is 17.7 µM (inactive).

Q: And the GI50 (HCT-15)?
A: The GI50 was 2.68 µM.

Q: And the GI50 (SK-MEL-5)?
A: Its GI50 is 7.33 µM (inactive).

Q: And the GI50 (T47D)?
A: The GI50 was 1.88 µM (inactive).

Q: And the GI50 (SW-620)?
A: Its GI50 is 2.23 µM (inactive).

Q: And the GI50 (KM-20L2)?
A: The GI50 was 14.4 µM (inactive).

Q: What about the GI50 (SNB-75) of the same compound?
A: The GI50 was 8.75 µM (inactive).

Q: And the GI50 (SF-295)?
A: The GI50 was 8.09 µM (inactive).

Q: What about the GI50 (HCT-116) of the same compound?
A: The GI50 was 3.73 µM (inactive).

Q: And the GI50 (SK-MEL-28)?
A: Its GI50 is 17 µM (inactive).

Q: And the GI50 (U-251)?
A: The GI50 was 2.03 µM (inactive).

Q: What about the GI50 (XF498) of the same compound?
A: The GI50 was 1.35 µM (inactive).

Q: What about the GI50 (HT-29) of the same compound?
A: Its GI50 is 8.59 µM (inactive).

Q: What about the GI50 (SNB-19) of the same compound?
A: The GI50 was 10.8 µM (inactive).

Q: What about the GI50 (MDA-MB-231) of the same compound?
A: The GI50 was 17.5 µM (inactive).

Q: And the GI50 (CCRF-CEM)?
A: Its GI50 is 0.326 µM (active).

Q: What about the GI50 (Malme-3M) of the same compound?
A: Its GI50 is 8.45 µM (inactive).

Q: What about the GI50 (K562) of the same compound?
A: Its GI50 is 2.91 µM (inactive).

Q: What about the GI50 (IGROV-1) of the same compound?
A: The GI50 was 13.1 µM (inactive).

Q: And the GI50 (OVCAR-3)?
A: Its GI50 is 3.05 µM (inactive).

Q: What about the GI50 (OVCAR-4) of the same compound?
A: Its GI50 is 6.11 µM (inactive).

Q: And the GI50 (KM12)?
A: Its GI50 is 8.28 µM (inactive).

Q: What about the GI50 (M19-MEL) of the same compound?
A: Its GI50 is 4.91 µM (inactive).

Q: What about the GI50 (RPMI-8226) of the same compound?
A: The GI50 was 4.65 µM (inactive).

Q: What about the GI50 (UO-31) of the same compound?
A: The GI50 was 4.76 µM (inactive).

Q: And the GI50 (SF-539)?
A: Its GI50 is 2.07 µM (inactive).

Q: What about the GI50 (M14) of the same compound?
A: Its GI50 is 6.35 µM (inactive).

Q: And the GI50 (EKVX)?
A: The GI50 was 16.1 µM (inactive).

Q: What about the GI50 (DLD-1) of the same compound?
A: Its GI50 is 4.56 µM (inactive).

Q: And the GI50 (PC-3)?
A: The GI50 was > 10 µM (inactive).

Q: What about the GI50 (SK-MEL-2) of the same compound?
A: The GI50 was 18.5 µM (inactive).

Q: And the GI50 (786-0)?
A: The GI50 was 0.964 µM (active).

Q: What about the GI50 (NCI-H522) of the same compound?
A: Its GI50 is 1.65 µM (inactive).

Q: What about the GI50 (A498) of the same compound?
A: Its GI50 is 18.6 µM (inactive).

Q: What about the GI50 (UACC-257) of the same compound?
A: The GI50 was 13.8 µM (inactive).

Q: What about the GI50 (MDA-N) of the same compound?
A: Its GI50 is 13.3 µM (inactive).

Q: And the GI50 (MCF7)?
A: Its GI50 is 1.29 µM (inactive).

Q: What about the GI50 (UACC-62) of the same compound?
A: Its GI50 is 1.28 µM (inactive).

Q: And the GI50 (OVCAR-5)?
A: Its GI50 is 12.6 µM (inactive).

Q: And the GI50 (OVCAR-8)?
A: Its GI50 is 4.09 µM (inactive).

Q: What about the GI50 (SK-OV-3) of the same compound?
A: The GI50 was 6.27 µM (inactive).

Q: What about the GI50 (SR) of the same compound?
A: The GI50 was 0.138 µM (active).

Q: And the GI50 (NCI-H226)?
A: Its GI50 is 13.1 µM (inactive).

Q: What about the GI50 (SN12C) of the same compound?
A: Its GI50 is 4.65 µM (inactive).

Q: What about the GI50 (LXFL 529) of the same compound?
A: The GI50 was 7.57 µM (inactive).

Q: And the GI50 (HOP-92)?
A: The GI50 was 7.73 µM (inactive).

Q: What about the GI50 (LOX IMVI) of the same compound?
A: The GI50 was 3.21 µM (inactive).

Q: What about the GI50 (HOP-18) of the same compound?
A: Its GI50 is 18.8 µM (inactive).

Q: What about the GI50 (MDA-MB-435) of the same compound?
A: The GI50 was 21.8 µM (inactive).

Q: What about the GI50 (NCI-H460) of the same compound?
A: The GI50 was 0.308 µM (active).

Q: What about the GI50 (A549) of the same compound?
A: The GI50 was 5.37 µM (inactive).

Q: What about the GI50 (COLO 205) of the same compound?
A: Its GI50 is 9.08 µM (inactive).

Q: What about the GI50 (DU-145) of the same compound?
A: Its GI50 is 4.54 µM (inactive).

Q: What about the GI50 (SF-268) of the same compound?
A: Its GI50 is 2.74 µM (inactive).

Q: What about the GI50 (RXF 393) of the same compound?
A: Its GI50 is 4.37 µM (inactive).

Q: And the GI50 (RXF 631)?
A: The GI50 was 4.71 µM (inactive).

Q: What about the GI50 (DMS-273) of the same compound?
A: Its GI50 is 0.638 µM (active).

Q: And the GI50 (HL-60)?
A: Its GI50 is 1.32 µM (inactive).

Q: And the GI50 (ACHN)?
A: The GI50 was 0.982 µM (active).

Q: And the GI50 (NCI-H23)?
A: Its GI50 is 2.99 µM (inactive).

Q: And the GI50 (TK-10)?
A: The GI50 was 17.6 µM (inactive).

Q: And the GI50 (BT-549)?
A: Its GI50 is 17.5 µM (inactive).

Q: And the GI50 (CAKI-1)?
A: Its GI50 is 4.15 µM (inactive).

Q: And the GI50 (SNB-78)?
A: Its GI50 is 28.6 µM (inactive).

From ChEMBL document CHEMBL1201862, “PubChem BioAssay data set” (2004)
